Holding throughout (format): functional
Experiment [1] relates to Aspergillus niger. The experiment can be described thus: Antimicrobial activity against at Aspergillus niger at 25 ug/ml by cup-plate method. The settings on record: read-out: IZ.
Experiment [2] has as its system Rattus norvegicus. As to the kind of experiment: Anti-inflammatory activity in Rattus norvegicus Wistar albino (rat) assessed as protection against carrageenan-induced paw edema at 50 mg/kg after 60 min.
Experiment [3] deals with Aspergillus niger. As to the kind of experiment: Antimicrobial activity against at Aspergillus niger at 50 ug/ml by cup-plate method. The settings on record: read-out: IZ.
For experiment [4], the system named is Escherichia coli. As to the kind of experiment: Antimicrobial activity against at Escherichia coli at 100 ug/ml by cup-plate method. Particulars: read-out: IZ.
Experiment [5] concerns Aspergillus niger. As to the kind of experiment: Antimicrobial activity against at Aspergillus niger at 100 ug/ml by cup-plate method. The settings on record: read-out: IZ.
For experiment [6], the system named is Escherichia coli. As to the kind of experiment: Antimicrobial activity against at Escherichia coli at 50 ug/ml by cup-plate method. The settings on record: read-out: IZ.
For experiment [7], the system named is Penicillium chrysogenum. The experiment can be described thus: Antimicrobial activity against at Penicillium chrysogenum at 100 ug/ml by cup-plate method. The settings on record: read-out: IZ.
The test system of experiment [8] is Mus musculus. The experiment can be described thus: Analgesic activity in Mus musculus Swiss albino (mouse) assessed as increase in reaction time of paw licking or jump response at 50 mg/kg, po after 90 min by hot plate method. (In hot-plate and tail-flick tests a longer latency is read as antinociception.)
The subject of experiment [9] is Penicillium chrysogenum. As to the kind of experiment: Antimicrobial activity against at Penicillium chrysogenum at 50 ug/ml by cup-plate method. Particulars: read-out: IZ.
Experiment [10] concerns Escherichia coli. As to the kind of experiment: Antimicrobial activity against at Escherichia coli at 25 ug/ml by cup-plate method. Particulars: read-out: IZ.
The test system of experiment [11] is Rattus norvegicus. The experiment can be described thus: Anti-inflammatory activity in Rattus norvegicus Wistar albino (rat) assessed as protection against carrageenan-induced paw edema at 50 mg/kg after 30 min. On the technique in general: The carrageenan paw model is a standard test of acute inflammation.
The subject of experiment [12] is Rattus norvegicus. The experiment can be described thus: Anti-inflammatory activity in Rattus norvegicus Wistar albino (rat) assessed as protection against carrageenan-induced paw edema at 50 mg/kg after 90 min.
The test system of experiment [13] is Bacillus subtilis. As to the kind of experiment: Antimicrobial activity against at Bacillus subtilis at 100 ug/ml by cup plate method. The settings on record: read-out: IZ.
Experiment [14] deals with Mus musculus. The experiment can be described thus: Analgesic activity in Mus musculus Swiss albino (mouse) assessed as increase in reaction time of paw licking or jump response at 50 mg/kg, po after 30 min by hot plate method.
The subject of experiment [15] is Rattus norvegicus. The experiment can be described thus: Anti-inflammatory activity in Rattus norvegicus Wistar albino (rat) assessed as protection against carrageenan-induced paw edema at 50 mg/kg after 2 hr.
For experiment [16], the system named is Bacillus subtilis. As to the kind of experiment: Antimicrobial activity against at Bacillus subtilis at 25 ug/ml by cup plate method. The settings on record: read-out: IZ.
Experiment [17] relates to Rattus norvegicus. The experiment can be described thus: Anti-inflammatory activity in Rattus norvegicus Wistar albino (rat) assessed as protection against carrageenan-induced paw edema at 50 mg/kg after 3 hr.
Experiment [18] concerns Bacillus subtilis. As to the kind of experiment: Antimicrobial activity against at Bacillus subtilis at 50 ug/ml by cup plate method. The settings on record: read-out: IZ.
Experiment [19] relates to Mus musculus. As to the kind of experiment: Analgesic activity in Mus musculus Swiss albino (mouse) assessed as increase in reaction time of paw licking or jump response at 50 mg/kg, po after 60 min by hot plate method.
Experiment [20] has as its system Penicillium chrysogenum. The experiment can be described thus: Antimicrobial activity against at Penicillium chrysogenum at 25 ug/ml by cup-plate method. Particulars: read-out: IZ.
The test system of experiment [21] is Mus musculus. The experiment can be described thus: Analgesic activity in Mus musculus Swiss albino (mouse) assessed as increase in reaction time of paw licking or jump response at 20 mg/kg, po after 90 min by hot plate method.
Experiment [22] deals with Mus musculus. As to the kind of experiment: Analgesic activity in Mus musculus Swiss albino (mouse) assessed as increase in reaction time of paw licking or jump response at 20 mg/kg, po after 60 min by hot plate method.

For `Cc1ccc(-c2onc3c2C(=O)c2ccccc2-3)cc1`, the zone of inhibition at 25 µg/mL with Aspergillus niger [1] turned out to be 10.5 mm; with Escherichia coli [10], 10 mm; with Bacillus subtilis [16], 6.77 mm. Also, the Activity in the experiment with Rattus norvegicus [2] is 43.66%; in the experiment with Mus musculus [8], 27.01%; in the experiment with Rattus norvegicus [11] it was 35.29%; with Rattus norvegicus [12], 45.72%; in the experiment with Mus musculus [14] it was 15.55%; in the experiment on Rattus norvegicus [15], 36.45%. Also, the values for the Activity in the experiment with Rattus norvegicus [17] and with Mus musculus [19] were 30.33% and 23.12%, respectively. Besides, the zone of inhibition at 50 µg/mL came to 18.5 mm in the experiment with Aspergillus niger [3], 15 mm in the experiment on Escherichia coli [6], 6.75 mm in the experiment on Penicillium chrysogenum [9] and 10.5 mm in the experiment on Bacillus subtilis [18]. Moreover, the zone of inhibition at 100 µg/mL in the experiment with Escherichia coli [4] turned out to be 25.3 mm; in the experiment on Aspergillus niger [5] it was 28 mm; with Penicillium chrysogenum [7], 15.5 mm; in the experiment with Bacillus subtilis [13], 15 mm.
Regarding `O=C1c2ccccc2-c2noc(-c3ccc([N+](=O)[O-])cc3)c21`, the zone of inhibition at 25 µg/mL in the experiment on Aspergillus niger [1] was 4.75 mm; with Escherichia coli [10], 5.5 mm; with Penicillium chrysogenum [20], 4.5 mm; with Bacillus subtilis [16], 4.5 mm. Moreover, the Activity amounted to 13.35% with Rattus norvegicus [2]; 8.55% in the experiment on Mus musculus [8]; 10.92% in the experiment on Rattus norvegicus [11]; 18.51% with Rattus norvegicus [12]; 3.95% in the experiment with Mus musculus [14]; 16.21% in the experiment with Rattus norvegicus [15]. For the same compound, the Activity in the experiment with Rattus norvegicus [17] was 17.21%; in the experiment with Mus musculus [19], 5.91%. Also, the zone of inhibition at 50 µg/mL with Aspergillus niger [3] was found to be 13.5 mm; in the experiment with Escherichia coli [6] it was 13 mm; in the experiment with Penicillium chrysogenum [9], 11 mm; in the experiment on Bacillus subtilis [18], 6.75 mm. In addition, the zone of inhibition at 100 µg/mL in the experiment on Escherichia coli [4] came out at 18.5 mm; in the experiment with Aspergillus niger [5], 16.2 mm; in the experiment on Penicillium chrysogenum [7], 15 mm; in the experiment on Bacillus subtilis [13] it was 14.5 mm.
For `O=C1c2ccccc2-c2noc(-c3ccccc3[N+](=O)[O-])c21`, the Activity came out at 6.33% with Rattus norvegicus [2]; 9.84% in the experiment with Mus musculus [8]; 7.22% in the experiment on Rattus norvegicus [11]; 7.11% with Rattus norvegicus [12]; 5.24% with Mus musculus [14]; 8.01% with Rattus norvegicus [15]. For the same compound, the Activity is given as 9.52% in the experiment with Rattus norvegicus [17] and 7.62% in the experiment on Mus musculus [19]. The zone of inhibition at 50 µg/mL in the experiment on Aspergillus niger [3] was 7.25 mm; with Escherichia coli [6], 12.8 mm; with Penicillium chrysogenum [9] it was 8.25 mm; in the experiment on Bacillus subtilis [18] it was 7.5 mm. The zone of inhibition at 100 µg/mL with Escherichia coli [4] came out at 19.8 mm; with Aspergillus niger [5], 19 mm; in the experiment with Penicillium chrysogenum [7] it was 14.2 mm; with Bacillus subtilis [13], 14.2 mm. Besides, the figures for the zone of inhibition at 25 µg/mL with Escherichia coli [10], with Penicillium chrysogenum [20] and in the experiment with Bacillus subtilis [16] were 5.25 mm, 5.25 mm and 4.25 mm, respectively.
Take `O=C1c2ccccc2-c2noc(-c3ccccc3)c21`: the zone of inhibition at 25 µg/mL in the experiment with Aspergillus niger [1] worked out at 9.75 mm; in the experiment with Escherichia coli [10], 9.79 mm; in the experiment with Penicillium chrysogenum [20], 6 mm; with Bacillus subtilis [16], 9 mm. Further, the Activity in the experiment on Rattus norvegicus [2] is listed as 27.61%; with Mus musculus [8] it was 17.23%; with Rattus norvegicus [11] it was 21.44%; with Rattus norvegicus [12], 30.19%; in the experiment on Mus musculus [14], 6.23%; in the experiment with Rattus norvegicus [15], 28.42%. Also, the Activity with Rattus norvegicus [17] is on record as 26.21%; with Mus musculus [19] it was 12.03%. The zone of inhibition at 50 µg/mL in the experiment with Aspergillus niger [3] amounted to 16.8 mm; in the experiment on Escherichia coli [6] it was 16.9 mm; in the experiment on Penicillium chrysogenum [9], 12.8 mm; in the experiment with Bacillus subtilis [18], 12 mm. In addition, the zone of inhibition at 100 µg/mL was determined as 30.9 mm in the experiment on Escherichia coli [4], 22.8 mm with Aspergillus niger [5], 19.5 mm in the experiment with Penicillium chrysogenum [7] and 16.3 mm with Bacillus subtilis [13].
As to `COc1cccc(-c2onc3c2C(=O)c2ccccc2-3)c1O`, the zone of inhibition at 25 µg/mL in the experiment on Aspergillus niger [1] amounted to 10.8 mm; in the experiment with Escherichia coli [10], 10.2 mm; with Penicillium chrysogenum [20], 5.35 mm; with Bacillus subtilis [16], 6.75 mm. The Activity with Rattus norvegicus [2] came to 32.22%; in the experiment with Mus musculus [8] it was 16.43%; in the experiment on Rattus norvegicus [11], 25.44%; in the experiment with Rattus norvegicus [12] it was 37.62%; with Mus musculus [14] it was 6%; in the experiment on Rattus norvegicus [15], 34.32%. Moreover, the Activity worked out at 30.41% in the experiment on Rattus norvegicus [17] and 11.44% in the experiment with Mus musculus [19]. The figures for the zone of inhibition at 50 µg/mL with Aspergillus niger [3], in the experiment with Escherichia coli [6] and with Penicillium chrysogenum [9] were 16.5 mm, 14.7 mm and 10.5 mm, respectively. Also, the zone of inhibition at 100 µg/mL in the experiment with Escherichia coli [4] stood at 21 mm; with Aspergillus niger [5], 29.6 mm; with Penicillium chrysogenum [7], 16.6 mm; in the experiment with Bacillus subtilis [13], 16 mm.
Take `O=C1c2ccccc2-c2noc(-c3ccc(Cl)cc3)c21`: the results for the zone of inhibition at 25 µg/mL with Aspergillus niger [1], in the experiment on Escherichia coli [10] and with Bacillus subtilis [16] were 5.5 mm, 6 mm and 5.25 mm, respectively. Moreover, the Activity in the experiment with Rattus norvegicus [2] was 12%; with Mus musculus [8] it was 16.1%; with Rattus norvegicus [11] it was 6.31%; with Rattus norvegicus [12], 12.16%; with Mus musculus [14], 7.18%; in the experiment on Rattus norvegicus [15], 15.11%. Further, the Activity in the experiment on Rattus norvegicus [17] amounted to 16.21%; with Mus musculus [19], 12.8%. For the same compound, the zone of inhibition at 50 µg/mL with Aspergillus niger [3] turned out to be 9.75 mm; with Escherichia coli [6], 6.75 mm; in the experiment on Penicillium chrysogenum [9] it was 8.5 mm; in the experiment with Bacillus subtilis [18], 11.5 mm. The zone of inhibition at 100 µg/mL in the experiment with Escherichia coli [4] amounted to 16 mm; in the experiment with Aspergillus niger [5], 13 mm; in the experiment with Penicillium chrysogenum [7] it was 12 mm; in the experiment on Bacillus subtilis [13] it was 18.5 mm.
Take `O=C([O-])Cc1ccccc1Nc1c(Cl)cccc1Cl.[Na+]` [DICLOFENAC SODIUM]: the Activity with Mus musculus [21] amounted to 34.62%; with Mus musculus [22], 27.59%.

The record behind these values is ChEMBL document CHEMBL3046232, “Synthesis, pharmacological evaluation and molecular docking studies of indanone derivatives” (2012).
